Entries after “also recorded” stand apart in the source; their conditions may differ.
Tests used:
pri-miR-96's Drosha site = details: parent compound, pri-miR-96 Drosha site; cited from earlier work
pri-miR-96 [1] = assay: pri-miR-96 levels / cleavage in cells by RT-qPCR; format: cell-based
Description: (§1) Cell culture: All cells were maintained at 37° C. with 5% CO2. MDA-MB-231 (HTB-26, ATCC) cells were cultured in RPMI 1640 medium with L-glutamine & 25 mM HEPES (Corning) supplemented with 10% FBS (Sigma) and 1×Antibiotic-Antimycotic (Corning). A549 (CCL-185, ATCC), HeLa (CCL-2, ATCC), and MCF7 (HTB-22, ATCC) cells were cultured in DMEM medium with 4.5 g/L glucose (Corning), supplemented with 10% FBS (Sigma), 1×Glutagro (Corning), and 1×Antibiotic-Antimycotic (Corning). MCF10a (CRL-10317, ATCC) cells were cultured in DMEM/F12 50/50 with L-glutamine & 15 mM HEPES (Corning), supplemented with 10% FBS (Sigma), 20 ng/mL human epidermal growth factor (Pepro Tech Inc.), […] hydrocortisone (Pfaltz & Bauer), 100 ng/mL cholera toxin (Sigma-Alrich), 10 μg/mL insulin (Sigma-Aldrich), and 1×Antibiotic-Antimycotic (Corning). […]
(§2) RNA isolation and RT-qPCR: Total RNA was extracted from untreated and treated cells by using a Quick-RNA MiniPrep (Zymo Research) per the manufacturer's protocol. […] RNA expression levels were determined using the ΔΔCt method and normalized with U6 small nuclear RNA as a housekeeping gene. Upon treatment with chimeric compound 2, relative cleavage levels were calculated according to equation 2 (Eq. 2) in order to control for the effect of parent compound 1a, on pri-miR-96 expression: […]

pri-miR-96 [2] = assay: In vitro cleavage of pri-miR-96 by RNase L (fluorescence-based and gel mapping); format: biochemical; details: in vitro competition
Description: Determination of RNA cleavage by fluorescence: A model RNase L substrate RNA1 labeled with a 5′ 6-Fluorescein and 3′ Iowa Black® FQ (5′-6FAM-UUAUCAAAU […] 3′ (SEQ ID NO: 1)—Iowa Black® FQ: RNA 1) was purchased from Integrated DNA Technologies, Inc. (IDT), which also HPLC purified the oligonucleotide. A model of pri-miR-96 RNA labeled with 5′ 6-Fluorescein and 3′ Quencher (IQ4, structure undisclosed) (5′-6FAM […] […] 3′ (SEQ ID NO: 2)—IQ4: RNA 2) was purchased from and HPLC purified by Chemgenes. Solutions of RNA 1 or RNA 2 were folded at 70° C. for 5 min and cooled to room temperature in RNase L Buffer without MgCl2, β-mercaptoethanol or ATP. After cooling, the RNA was supplemented with 10 mM MgCl2, fresh 7 mM β-mercaptoethanol, and 50 μM of ATP. […] Fluorescence intensity (Ex: 485 nm, Em: 528 nm) was measured on a BioTek FLx800 plate reader. Relative Fluorescence Enhancement was calculated by normalizing the fluorescent signal of treated RNA samples to the fluorescent signal of untreated RNA samples. Percentage RNA Cleavage was calculated by normalizing sample fluorescent signals relative to the maximum fluorescent signal, set as 100%. […] Normalized RNA Cleavage was calculated by normalizing sample fluorescent signals relative to the maximum fluorescent signal (compound with no tRNA), set as 1. […]

mature miR-96 = assay: Mature miR-96 levels in cells by RT-qPCR; format: cell-based; details: MDA-MB-231 cells
Description: as §1, §2

Targaprimir-96 [Compound 1a]
Kd (pri-miR-96's Drosha site): 20 nM | pri-miR-96 levels (pri-miR-96 [1]; MDA-MB-231 cells, RT-qPCR): increased; also recorded: boosted | 2-mediated pri-miR-96 cleavage upon co-treatment with 1a (pri-miR-96 [1]; constant concentration of 2, increasing concentrations of 1a): decreased pri-miR-96 cleavage levels in a dose dependent fashion; also recorded: reduced | Cleavage at U12 by 2 upon addition of the parent compound (pri-miR-96 [2]): inhibited | mature miR-96 levels (mature miR-96): reduced

From US20210102200A1, “SMALL MOLECULE TARGETED RECRUITMENT OF A NUCLEASE TO RNA” (The Scripps Research Institute, priority 2018, published 2021)
